In patent US20080280999A1, “Process for Making Pharmaceutical Compositions with a Transient Plasticizer” (NOVARTIS AG, priority 2005, published 2008):
≈ marks a conversion by molar mass, not a printed value.

Test: Solubility in water
Assay type: physicochemical
Procedure: As used herein, the term “poorly water-soluble” or “poorly soluble” refers to having a solubility in water at 20° C. of less than 1%, i.e., a “sparingly soluble to practically insoluble, or insoluble drug” as described in Remington, The Science and Practice of Pharmacy, 21st Edition, p. 212, D. B. Troy, Ed., Lippincott Williams & Wilkins (2005).

Row | solubility in water (in words) | solubility [µg/mL] | SMILES
1 | insoluble in water | – | CC[C@@H]1/C=C(\C)C[C@H](C)C[C@H](OC)[C@H]2O[C@@](O)(C(=O)C(=O)N3CCCC[C@H]3C(=O)O[C@H](/C(C)=C/[C@@H]3CC[C@H](Cl)[C@H](OC)C3)[C@H](C)[C@@H](O)CC1=O)[C@H](C)C[C@@H]2OC [Pimecrolimus]
2 | – | 10 (≈ 17.4 µM) | CN(Cc1ccccc1)C(=O)[C@H](Cc1ccc2ccccc2c1)N(C)C(=O)[C@@H]1CCCN1c1nc(=O)c2ccccc2[nH]1
